Laboratory results from patent US20070185012A1, “Glycopeptides for the treatment of als and other metabolic and autoimmune disorders” (priority 2003, published 2007).
Like-named read-outs stand apart in the source and are kept apart here.

What was measured:
mice = conditions: cited from earlier work
[1] = Bioavailability, nasal versus oral administration; conditions: administered via the nasal route, compared with oral
ALS patients [2] = test: Twenty five ALS patients given aqueous intranasal spray of GMDP-A (Example 7); type: in vivo, human; conditions: 0.31 mg GMDP-A aqueous intranasal spray
ALS patients [3] = test: Case reports of single ALS patients treated with glycopeptide (Examples 1-6)
[4] = in vivo; cited from earlier work
[5] = orally administered; Lyons et al 2000; cited from earlier work
[6] = Example 2: after 5 months of GMDP then GMDP-A
[7] = Example 5: GMDP-A intranasal spray 3 months

CCCCCCCCCCCCCCCCCC(=O)NCCCC[C@H](NC(=O)CC[C@@H](NC(=O)[C@H](C)NC(=O)[C@@H](C)O[C@H]1[C@H](O)[C@@H](CO)OC(O)[C@@H]1NC(C)=O)C(N)=O)C(=O)O (stereo partly drawn) [muroctasin, reference compound]
LD50 (mice; mice): 625 mg/kg

N-acetyl-D-glucosaminyl-(β1-4)-N-acetylmuramyl-L-alanylD-glutamic acid [GMDP-A]
bioavailability [1]: improved
time to reported symptom reduction and improvement (ALS patients [2]): 24 to 96 h
patients reporting dramatic reductions in symptoms (fasciculations, muscle weakness, fatigue, choking) (ALS patients [2]; of twenty five ALS patients, 1-4 months): Twenty one
ALS progression (ALS patients [3]; [6]): no progression
fasciculations (ALS patients [3]; Example 3: 0.93 mg GMDP-A every 96 hours): major reductions
ALS progression and symptoms (ALS patients [3]; Example 3: 1.42 mg GMDP-A every 96 hours, after 4 months of therapy): abated all progression and symptoms of ALS
arm function (ALS patients [3]; Example 4: 0.942 mg intranasal spray daily): ability to comb their hair and feed themself was restored
reduction in fasciculations (ALS patients [3]; Example 4: 0.942 mg intranasal spray daily, within 2 days): 90%
ALS progression (ALS patients [3]; Example 4: for 4 months): No progression
disease progression (ALS patients [3]; [7]): no progression of disease
mobility (ALS patients [3]; [7]): ability to stand with support and walk with a walker
reduction in fasciculations (ALS patients [3]; Example 5: GMDP-A intranasal spray 3 months, 1.24/0.93/0.62/0.31/0.31 mg days one to five, 6 day cycle): 100%
ALS symptoms (ALS patients [3]; Example 6: GMDP-A intranasal spray 1.42 mg every 96 hours, 3 months): cessation of their ALS symptoms

CC(=O)NC1C(OC2C(CO)OC(O)C(NC(C)=O)C2OC(C)C(=O)NC(C)C(=O)NC(CCC(=O)O)C(N)=O)OC(CO)C(O)C1O [GMDP, N-acetyl-D-glucosaminyl-(β1-4)-N-acetylmuramyl-L-alanylD-isoglutamine]
pyrogenicity [4]: sufficiently low
LD50 (mice; acute toxicity in mice): 7000 mg/kg
bioavailability [1]: improved
bioavailability [5]: low bioavailability
voluntary motor function (ALS patients [3]; Example 1: 3 months, semi-weekly aqueous oral spray of GMDP): Continued voluntary motor improvement
pulsox after removal of the oxygen (ALS patients [3]; Example 1: 14 hours after first 6 mg GMDP dose, ambient air (82% before therapy), no respiratory distress): 99%
speech (ALS patients [3]; Example 1: after fourth day of 6 mg GMDP, first time in 18 months): began to speak soft-spoken words
voluntary movement (ALS patients [3]; Example 1: day three, 6 mg GMDP aqueous oral spray): able to move all fingers on both hands excluding their thumbs
time until small fingers responded to voluntary challenge (ALS patients [3]; Example 1: day two, additional 6 mg GMDP aqueous oral spray): ≤ 2 h
pulsox (ALS patients [3]; Example 1: person, final stage bulbar onset ALS, on pure oxygen (94% before), 6 mg GMDP aqueous oral spray plus 400 mg luteolin/400 mg rutin four times a day, within 24 hours): 99%-100%
time of peak improvement of voice and energy (ALS patients [3]; Example 2: 10 mg GMDP aqueous oral spray): one
ALS progression (ALS patients [3]; [6]): no progression
time to dramatic improvement of voice and energy (ALS patients [3]; Example 2: person, bulbar onset ALS, on 2000 mg luteolin and 2000 mg rutin per day, 10 mg GMDP aqueous oral spray): ≤ 40 min
time to substantial improvement in leg strength and fasciculations (ALS patients [3]; Example 3: 1.51 mg GMDP intranasally per day, on luteolin/rutin): ≤ 24 h
side effect (ALS patients [3]; Example 3: GMDP taken more frequently than every 96 hours): significant joint and muscle pain
walking distance without AFO (ALS patients [3]; Example 3: after 2 weeks of daily GMDP (before: not over 15 meters with AFO)): up to 200 meters
